Experiments:
[1] = system: hippocampal slice; test: Stimulation-evoked afterdischarge activity in hippocampal slice (field recording and intrinsic optical signal); format: cell-based, rat
Experimental: Sprague-Dawley rats (male and female; 25 to 35 days old) were prepared as described in Aghajanian, A. K. and Rasmussen, K., Synapse 31:331, 1989; and Buckmaster, P. S., Strowbridge, B. W., Schwartzdroin, P. A., J. Neurophysiol. 70:1281, 1993. In most hippocampal slice experiments, simultaneous extracellular field electrode recordings were obtained from CA1 and CA3 areas. For stimulation-evoked afterdischarge (13 slices, 8 animals), the concentration of Mg^2+ in the bathing medium was reduced to 0.9 mM. A bipolar tungsten stimulating electrode was placed on the Schaffer collaterals to evoke synaptically driven field responses in CA1; stimuli consisted to 100 to 300-μs-duration pulses at an intensity of four times population-spike threshold. Afterdischarges were evoked by a 2-s train of such stimuli delivered at 60 Hz. […] In all treatments, perfusion with furosemide-containing medium was begun after a consistent level of bursting had been established.
For imaging of intrinsic optical signals, the tissue was illuminated with a beam of white light (tungsten filament light and lens system; Dedotec USA, Lodi, N.J.) directed through the microscope condenser. The light was controlled and regulated (power supply: Lambda Electronics, Melville, N.Y.) to minimize fluctuations and filtered (695 nm long-pass) so that the slice was transilluminated with long wavelengths (red). Image frames were acquired with a charge-coupled device camera (Dage-MTI) at 30 Hz and were digitized at 8 bits with a spatial resolution of 512 by 480 pixels by means of an Imaging Technology Series 151 imaging system; gains and offsets of the camera-control box and the analog-to-digital board were adjusted to optimize the sensitivity of the system. Imaging hardware was controlled by a 486-PC-compatible computer running software written by D. Hochman and developed with commercially available software tools (Microsoft's C/C++ Compiler and Imaging Technology's ITEX library). To increase signal-to-noise ratio, an averaged image was composed from 16 individual image-frames, integrated over 0.5 s and averaged together. An experimental series typically involved the continuous acquisition of a series of averaged images over a several minute time period; at least 10 of these averaged images were acquired as control images before stimulation. Pseudo-colored images were calculated by subtracting the first control image from subsequently acquired images and assigned a color lookup table to the pixel values. For these images, usually a linear low-pass filter was used to remove high-frequency noise and a linear-histogram stretch was used to map the pixel values over the dynamic range of the system. All operations on these images were linear so that quantitative information was preserved.

[2] = system: low grade CNS tumor (astrocytoma, grade 1); test: Intraoperative optical imaging of dye uptake and clearance, low grade human CNS tumor; format: in vivo; conditions: 1 mg/kg iv bolus
From the text: (§1) The procedure used in Examples 1-4 was as follows. The area of interest was evenly illuminated by a fiber optic light source with the radiation passing through a beam splitter, controlled by a D.C. regulated power supply (Lambda, Inc.) and passed through a 695 nm longpass filter. Images were acquired with a CCD camera (COHU 6500) fitted to the operating microscope with a specially modified cineadaptor. The cortex was stabilized with a glass footplate. Images were acquired at 30 Hz and digitized at 8 bits (512×480 pixels, using an Imaging Technology, Inc. Series 151 system, Woburn, Mass.). Geometrical transformations were applied to images to compensate for small amounts of patient motion (Wohlberg, Digital Imaging Warping, IEEE Computer Society: Los Alamitos, Calif., 1988). […] Raw data (i.e., no digital enhancement) were used for determining the average optical change in specified regions (average size box was 30×30 pixels or 150-250 um^2). For pseudocolor images, a linear low pass filter removed high frequency noise and linear histogram transformations were applied. Noise was defined as the standard deviation of fluctuations it! sequentially acquired control images as 0.003-0.009.
An averaged control image was obtained of the particular cortical surface area of interest. FIG. 1A is a gray-scale image of the area of interest prior to dye administration. […]

[3] = system: highly malignant CNS tumor (glioblastoma; astrocytoma, grade IV); test: Intraoperative optical imaging of dye uptake and clearance, malignant human CNS tumor; format: in vivo; conditions: iv injection; 1 minute and 10 minutes after dye injection
From the text: as §1
This example illustrates optical detection of a highly malignant CNS tumor (glioblastoma; astrocytoma, grade IV). […]

[4] = system: rat glioma; conditions: in vivo
From the text: This example illustrates a series of experiments using a rat glioma model through an intact skull to investigate whether the inventive method and inventive device could function in to image tumor tissue through an intact skull and through intact skin prior to or after surgery. Far red wavelengths of emr are known to penetrate through bone and skin. Imaging of tumor tissue was attempted through the intact skull of the rat. The extent of tumor identified was not as accurate as with the cortex exposed; however, the area lying beneath the skull with tumor tissue was easily identified and localized, and continued to concentrate dye after several minutes. […] One minute after dye injection, the dye had been cleared from the normal brain and the only residual signal remained in tumor tissue and the sagital/traverse sinuses.
FIG. 5A is a gray scale image of the cranial surface of a rat. The sagital suture runs down the center of the image. Tumor cells had been injected into the left side some days earlier so that this animal had developed a glioma on t he left hemisphere of its brain. The right hemisphere was normal. Box 1 lays over the suspect region of brain tumor, and Box 2 lays over normal tissue. FIG. 5B is a difference image one second after indocyanine green dye had been intraveneously injected into the animal. The region containing tumor tissue becomes immediately visible through the intact cranium. […] The concentration of dye in the center of this difference image is dye circulating in the sagital sinus.
The optical changes were determined by the average optical change in a box placed directly over the tumor and over the normal hemisphere. The increase in absorption is a function of the concentration of dye in the tissue at a particular time. The graph labeled “extracranial tumor” is a plot of the dynamics of the absorption changes within box 1 from FIG. 5A. The graph labeled “extracranial: normal” is a plot of the dynamics of the absorption change within box 2 from FIG. 5A.
The following imaging apparatus was employed in Examples 5 and 6. […]

[5] = system: rat glioma; conditions: female, F-344, rat, in vivo
From the text: The rat glioma model is a standard predictive model and was used to delineate dye uptake, clearance and overall parameters of optical imaging that result in the best images. The rat glioma model consistently produces reproducible tumors for imaging studies in which the tumor is resected under an operating microscope. A disadvantage of this model is the more sarcoma-like appearance of the tumor and a lesser degree of vascularity compared to human gliomas.
Briefly, the rat glioma model uses an ethylnitrosourea-induced F-344 rat tumor line developed from a clonal population of a spinal malignant astrocytoma. […] The glioma cells were maintained in Weymouth's medium supplemented with 10% fetal calf serum. Viable cells ([…]) were trypsinized from a monolayer culture and implanted stereotaxically into the right cerebral hemisphere of 30 syngeneic female rats, each weighing 140-160 g. The stereotaxic coordinates for right frontal lobe implantation were 4.5 mm anterior to the frontal zero plane, 3 mm right from the midline and 6 mm deep. The rats were anesthetized for implantation. The heads were shaved and scalps opened, and a 1 mm burr hole made at the appropriate coordinates. The cells were injected through a 27 gauge needle, the needle left in place for 30 sec post injection and the hole was covered with bone wax. The scalp was sutured and the animals observed for 3-4 hrs until they returned to normal activity and feeding. The animals were used 10-14 days after tumor implantation. In this model, animals begin to show clinical symptoms from the tumor by 16-19 days, such as decreased activity and feeding, hemiparesis and eventually succumb between 19-27 days from mass effects due to tumor expansion.
Fourteen animals underwent the complete study, including imaging before and after resection of the tumor. The animals were anesthetized with 2% isoflurane, and the femoral vein cannulated for administration of the dye. Anesthesia was maintained with a—chloralose (50 mg/kg administered ip) and urethane (160 mg/kg administered ip). The animals were placed in a stereotaxic holder. Imaging studies were then carried out before or after removal of the cranium. The tumor typically occupied the anterior one half to two thirds of the right hemisphere exposure. The compressed brain without any tumor infiltration was defined as the tumor surround to separate it from the normal hemisphere on the contralateral side.
The following imaging apparatus was employed in Examples 5 and 6. Light was from a tungsten-halogen bulb regulated by a D.C. power supply, passed through a longpass filter (690 nm), and through a right angled prism reflected through a 50 or 100 mm objective lens onto the cortical surface. […]

[6] = 2.5 mM, 20 minutes of perfusion

peak optical change, normal brain [4]	peak optical change, tumor [4]	duration of prolonged increase in optical signal in the tumor [5]	dye uptake rise time, normal [5]	onset of optical signal change after dye injection [5]	peak percentage difference change, tumor [5]	SMILES	electrical afterdischarge activity [1, 6]	stimulation-evoked optical changes [1, 6]	reversibility after washout ([1]; 45 minutes of perfusion with normal bathing medium)	epileptiform activity and intrinsic optical signal during electrical stimulation ([1]; following treatment with furosemide)	entry of dye into low grade tumor tissue vs normal brain tissue [2]	retention of dye in malignant tissue [3]	dye clearance, normal vs tumor region ([4]; iv)
						NS(=O)(=O)c1cc(C(=O)O)c(NCc2ccco2)cc1Cl [furosemide]	blocked	blocked	restoration of the initial response pattern	blocks the epileptiform activity and the intrinsic optical signal			
7.8±2.3%	13.1±3.9%	> 2 min	2.4 %/sec	2 to 3 s	40.5±9.6%	CC1(C)C(/C=C/C=C/C=C/C=C2\N(CCCCS(=O)(=O)O)c3ccc4ccccc4c3C2(C)C)=[N+](CCCCS(=O)(=O)[O-])c2ccc3ccccc3c21 [indocyanine green]					enters low grade tumor tissue faster than normal brain tissue	retained significantly longer in malignant tissue than in benign tumor tissue	the normal tissue has cleared the dye, but dye is still retained in the tumor region

From US6671540B1, “Methods and systems for detecting abnormal tissue using spectroscopic techniques” (priority 1990, dated 2003)
